Results: patent US20260000635A1, “THERAPEUTIC AGENT FOR GLAUCOMA COMPRISING FP AGONIST AND ß BLOCKER” (ONO PHARMACEUTICAL CO., LTD., priority 2017, published 2026)

Test system: male dogs (TOYO Beagle)
Assay: Intraocular pressure lowering action after instillation in dogs
Assay type: in vivo, dog (TOYO Beagle)
Conditions: for Time after administration exhibiting maximum intraocular pressure lowering action: 30 μL instillation, measured at 2, 4, 6, 8, 24 h; for Intraocular pressure lowering width 24 hours after administration / Maximum intraocular pressure lowering width: mean ± S.E., n=8, 30 μL instillation, Compound A 3 μg/mL, timolol 0.5% ophthalmic solution; for Maximum intraocular pressure lowering width: maximum of average lowering width over 2, 4, 6, 8, 24 h
Description: Compound A and a β-blocker were used as test substances. Compound A was prepared in a 3 μg/mL solution using a vehicle (an aqueous solution containing 0.3 w/v % sodium citrate, 0.5 w/v % polysorbate 80, and 0.8 w/v % sodium chloride). Timolol (trade name: Timoptol (registered trademark) 0.5% ophthalmic solution, Santen Pharmaceutical Co., Ltd.) was used as a β-blocker.
Approximately one hour before administering the vehicle and a test substance to male dogs (TOYO Beagle, 16 to 42 months old at start of use) that have been sufficiently acclimated in advance, intraocular pressure in both eyes was measured, and the intraocular pressure was set as the intraocular pressure value before instillation. Thereafter, a test substance or the vehicle was administered by instillation into the treated eyes in an amount of 30 μL each, and intraocular pressure in both eyes was measured about 2, 4, 6, 8, and 24 hours after the administration. The intraocular pressure was measured by a pneumatic applanation tonometer (Model 30 Classic, Reichert, Inc.) under the local anesthesia after instilling 0.4% oxybuprocaine hydrochloride (Benoxil (registered trademark) ophthalmic solution 0.4%, Santen Pharmaceutical Co., Ltd.), which is a local anesthetic. The measurement was performed until a stable value was obtained three times successively (a difference between continuously obtained measured values was within 0.5 mmHg).
The value obtained by subtracting the intraocular pressure value at each measurement time from the intraocular pressure value before test substance and vehicle administration was defined as the intraocular pressure lowering width, and the average value of the intraocular pressure lowering width of each individual at each measurement time was defined as the average intraocular pressure lowering width. The maximum value of the average intraocular pressure lowering width at each measurement time was defined as the maximum intraocular pressure lowering width. In addition, the average intraocular pressure lowering width 24 hours after administration was defined as the intraocular pressure lowering width 24 hours after administration. Meanwhile, in the case where there are two drug names in a group name, it means the order of administration. For example, the Compound A-timolol group means that Compound A was administered first, and timolol was administered thereafter into the same eye.

SMILES	Time after administration exhibiting maximum intraocular pressure lowering action	Intraocular pressure lowering width 24 hours after administration	Maximum intraocular pressure lowering width
CC(C)OC(=O)CCC[C@H]1CC[C@@H]2[C@@H](/C=C/[C@@H](O)COc3cc(F)ccc3F)[C@H](O)C[C@@H]2OC1 [Compound A-vehicle, 2-propanyl 4-{(3S,5aR,6R,7R,8aS)-6-[(1E,3R)-4-(2,5-difluorophenoxy)-3-hydroxy-1-buten-1-yl]-7-hydroxyoctahydro-2H-cyclopenta[b]oxepin-3-yl}butanoate]	6 h	3.5 ± 0.75 mmHg	5.8 ± 0.35 mmHg
CC(C)(C)NC[C@H](O)COc1nsnc1N1CCOCC1 [Vehicle-timolol, timolol]	2 h	0.0 ± 0.56 mmHg	2.7 ± 0.56 mmHg
